Reference: the NIST ThermoML archive (doi:10.1016/j.jct.2008.10.010)

Assay: molar heat capacity at constant pressure; xn = mol fraction of the nth substance listed
Conditions: 101.3 kPa, Liquid, Small sample (50 mg) DSC

CCC(C)(C)O [2-methylbutan-2-ol] + CCCCCCC
molar heat capacity at constant pressure [J/K/mol]
Conditions	309.15 K	310.16 K	311.14 K	312.15 K	313.16 K	314.14 K	315.15 K	316.16 K	317.14 K	318.15 K
x1 = 0.0061	–	229.11	229.41	229.87	230.16	230.54	231.04	231.41	231.74	232.22
x1 = 0.0249	–	232.84	233.01	233.27	233.44	233.76	234.1	234.24	234.45	234.79
x1 = 0.0494	–	238.76	238.96	239.19	239.44	239.64	239.85	240.04	240.17	240.39
x1 = 0.1	–	246.57	246.82	247.28	247.62	247.94	248.26	248.61	248.85	249.22
x1 = 0.1547	–	251.57	252.06	252.56	253.04	253.52	254.01	254.44	254.85	255.3
x1 = 0.1999	–	254.63	255.2	255.82	256.43	257.01	257.6	258.06	258.58	259.15
x1 = 0.2993	–	259.26	259.96	260.68	261.51	262.2	262.9	263.57	264.25	264.95
x1 = 0.4051	–	261.91	262.71	263.58	264.53	265.3	266.17	266.93	267.74	–
x1 = 0.4986	262.32	263.33	264.23	265.2	266.22	267.11	268.03	268.88	269.71	–
x1 = 0.5981	262.83	263.88	264.84	265.84	266.9	267.83	268.84	269.72	270.72	–
x1 = 0.7015	262.76	263.9	264.89	265.94	267.08	268.09	269.07	270.07	271.01	–
x1 = 0.8023	261.98	263.1	264.11	265.15	266.27	267.27	268.34	269.26	270.34	–
x1 = 0.9139	260.52	261.67	262.65	263.76	264.91	265.99	267.02	268	269.05	–
x1 = 0.9609	259.67	260.83	261.81	262.89	264	265.01	266.09	267.03	268.07	–
